The structures appear in SMILES notation. pKi: −log10 of the molar value. Some results are limits rather than exact numbers.

The target of assay [1] is T1, 5-hydroxytryptamine receptor 1A (Homo sapiens, UniProt P08908).
T1 sequence (P08908 whole entry): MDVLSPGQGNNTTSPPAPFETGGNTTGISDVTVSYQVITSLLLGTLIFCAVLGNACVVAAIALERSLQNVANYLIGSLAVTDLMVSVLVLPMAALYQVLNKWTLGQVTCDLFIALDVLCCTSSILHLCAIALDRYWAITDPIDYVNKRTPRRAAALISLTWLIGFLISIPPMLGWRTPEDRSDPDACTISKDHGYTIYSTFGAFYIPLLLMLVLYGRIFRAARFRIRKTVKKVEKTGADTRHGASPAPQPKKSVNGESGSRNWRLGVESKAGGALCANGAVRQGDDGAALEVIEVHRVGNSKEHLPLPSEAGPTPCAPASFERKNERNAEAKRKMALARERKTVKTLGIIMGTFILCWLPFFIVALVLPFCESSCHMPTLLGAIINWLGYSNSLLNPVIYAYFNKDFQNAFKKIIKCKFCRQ
Briefly: In vitro binding affinity to human 5-hydroxytryptamine 1A receptor.

For assay [2], the target named is 5-hydroxytryptamine receptor 1B (Homo sapiens, UniProt P28222). The assay can be described thus: Binding affinity to cloned human 5-hydroxytryptamine 1B receptor.
Sequence of 5-hydroxytryptamine receptor 1B (P28222 whole entry): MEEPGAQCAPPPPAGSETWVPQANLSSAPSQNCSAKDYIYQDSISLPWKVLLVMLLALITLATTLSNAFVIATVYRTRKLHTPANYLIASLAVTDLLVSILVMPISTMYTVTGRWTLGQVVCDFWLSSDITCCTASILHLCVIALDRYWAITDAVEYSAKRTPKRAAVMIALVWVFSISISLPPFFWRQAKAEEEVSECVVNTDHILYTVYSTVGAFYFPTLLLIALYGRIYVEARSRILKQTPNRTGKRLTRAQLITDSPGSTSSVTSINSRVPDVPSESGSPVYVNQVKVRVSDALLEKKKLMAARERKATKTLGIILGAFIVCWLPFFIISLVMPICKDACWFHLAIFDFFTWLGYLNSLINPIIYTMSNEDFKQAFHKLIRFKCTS
Assay [3] addresses 5-hydroxytryptamine receptor 2A (Homo sapiens, UniProt P28223). The assay can be described thus: Binding affinity to cloned human 5-hydroxytryptamine 2A receptor.
Assay [4] has as its target 5-hydroxytryptamine receptor 6 (Homo sapiens, UniProt P50406). Briefly: In vitro binding affinity to human 5-hydroxytryptamine 6 receptor.
Assay [5] addresses 5-hydroxytryptamine receptor 5A (Homo sapiens, UniProt P47898). Briefly: Binding affinity to cloned human 5-hydroxytryptamine 5A receptor.
Assay [6] has as its target 5-hydroxytryptamine receptor 7 (Homo sapiens, UniProt P34969). The assay can be described thus: In vitro binding affinity to human 5-hydroxytryptamine 7 receptor.
Assay [7] has as its target D(1A) dopamine receptor (Rattus norvegicus, UniProt P18901). Briefly: In vitro binding affinity to cloned rat Dopamine receptor D1 measured by displacement of radioligand [3H]SCH-23,982. Further details: […].
The target of assay [8] is T2, D(4) dopamine receptor (Rattus norvegicus, UniProt P30729).
T2 sequence (P30729 whole entry): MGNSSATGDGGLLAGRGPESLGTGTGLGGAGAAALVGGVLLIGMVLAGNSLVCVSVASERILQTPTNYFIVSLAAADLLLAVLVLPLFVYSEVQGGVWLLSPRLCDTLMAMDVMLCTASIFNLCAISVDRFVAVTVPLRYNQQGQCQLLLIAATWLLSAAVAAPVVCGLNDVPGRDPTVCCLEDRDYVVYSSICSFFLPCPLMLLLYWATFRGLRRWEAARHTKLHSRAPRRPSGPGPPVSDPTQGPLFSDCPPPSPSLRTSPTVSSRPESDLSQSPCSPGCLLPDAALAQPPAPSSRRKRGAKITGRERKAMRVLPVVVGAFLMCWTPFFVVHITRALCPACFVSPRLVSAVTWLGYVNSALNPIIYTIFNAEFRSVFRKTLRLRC
The assay can be described thus: In vitro binding affinity to rat Dopamine receptor D4 measured by displacement of the radioligand [3H]spiperone.

The target in assay [9] is D(2) dopamine receptor (Rattus norvegicus, UniProt P61169). The assay can be described thus: In vitro binding affinity to rat Dopamine receptor D2 measured by displacement of the radioligand [3H]spiperone.
The target of assay [10] is D(1B) dopamine receptor (Rattus norvegicus, UniProt P25115). The assay can be described thus: In vitro binding affinity to cloned rat D5 receptor measured by displacement of radioligand [3H]SCH-23,982.
Sequence of D(1B) dopamine receptor (P25115 whole entry): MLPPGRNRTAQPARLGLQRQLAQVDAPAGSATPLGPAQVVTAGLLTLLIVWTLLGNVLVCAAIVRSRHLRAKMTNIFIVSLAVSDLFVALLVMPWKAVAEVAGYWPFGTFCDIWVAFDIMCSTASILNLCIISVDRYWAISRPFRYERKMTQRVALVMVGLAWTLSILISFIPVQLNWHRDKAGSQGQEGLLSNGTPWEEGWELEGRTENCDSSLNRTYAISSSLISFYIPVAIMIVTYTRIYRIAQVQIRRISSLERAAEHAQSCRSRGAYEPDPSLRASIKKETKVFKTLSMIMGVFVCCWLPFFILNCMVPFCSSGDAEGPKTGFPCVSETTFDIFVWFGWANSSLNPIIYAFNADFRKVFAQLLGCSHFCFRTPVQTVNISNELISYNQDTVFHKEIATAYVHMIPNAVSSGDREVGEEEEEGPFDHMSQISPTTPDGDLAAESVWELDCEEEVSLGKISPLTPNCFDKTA
Assay [11] concerns the target D(3) dopamine receptor (Rattus norvegicus, UniProt P19020). Briefly: In vitro binding affinity to cloned rat Dopamine receptor D3 measured by displacement of the radioligand [3H]sulpiride. Further details: […].
The target of assay [12] is Histamine H1 receptor (Homo sapiens, UniProt P35367). The assay can be described thus: Binding affinity to cloned Histamine H1 receptor.
Sequence of Histamine H1 receptor (P35367 whole entry): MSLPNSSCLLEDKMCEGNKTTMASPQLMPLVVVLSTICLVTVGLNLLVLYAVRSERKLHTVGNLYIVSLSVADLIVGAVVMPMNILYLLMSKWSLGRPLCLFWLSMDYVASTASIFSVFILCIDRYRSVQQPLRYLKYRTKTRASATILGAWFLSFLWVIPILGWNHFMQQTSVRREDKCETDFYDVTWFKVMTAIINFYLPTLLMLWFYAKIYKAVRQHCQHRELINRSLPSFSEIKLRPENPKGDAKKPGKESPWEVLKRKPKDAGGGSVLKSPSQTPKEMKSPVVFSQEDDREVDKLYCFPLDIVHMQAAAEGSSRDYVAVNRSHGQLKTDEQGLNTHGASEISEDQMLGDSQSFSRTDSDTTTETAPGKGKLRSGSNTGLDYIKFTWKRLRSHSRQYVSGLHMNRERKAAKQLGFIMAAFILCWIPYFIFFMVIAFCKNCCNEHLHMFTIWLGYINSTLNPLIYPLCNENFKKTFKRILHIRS
The target of assay [13] is T3, Muscarinic acetylcholine receptor M4 (Homo sapiens, UniProt P08173).
T3 sequence (P08173 whole entry): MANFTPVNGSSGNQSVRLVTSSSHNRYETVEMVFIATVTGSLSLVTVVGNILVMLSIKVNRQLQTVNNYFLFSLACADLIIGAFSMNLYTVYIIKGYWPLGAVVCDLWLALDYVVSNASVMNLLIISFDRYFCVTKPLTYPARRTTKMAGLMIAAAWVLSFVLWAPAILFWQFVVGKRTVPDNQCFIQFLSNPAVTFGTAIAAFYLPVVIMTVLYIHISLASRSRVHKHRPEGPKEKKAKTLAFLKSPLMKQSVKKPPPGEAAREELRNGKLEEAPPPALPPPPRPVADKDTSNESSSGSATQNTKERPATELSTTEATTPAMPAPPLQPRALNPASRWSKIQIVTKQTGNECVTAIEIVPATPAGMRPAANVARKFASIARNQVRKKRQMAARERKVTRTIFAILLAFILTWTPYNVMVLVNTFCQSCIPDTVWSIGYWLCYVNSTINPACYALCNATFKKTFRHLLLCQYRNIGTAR
Briefly: Binding affinity to cloned Muscarinic acetylcholine receptor M4.

The target of assay [14] is Muscarinic acetylcholine receptor M3 (Homo sapiens, UniProt P20309). Briefly: Binding affinity to cloned Muscarinic acetylcholine receptor M3.
Sequence of Muscarinic acetylcholine receptor M3 (P20309 whole entry): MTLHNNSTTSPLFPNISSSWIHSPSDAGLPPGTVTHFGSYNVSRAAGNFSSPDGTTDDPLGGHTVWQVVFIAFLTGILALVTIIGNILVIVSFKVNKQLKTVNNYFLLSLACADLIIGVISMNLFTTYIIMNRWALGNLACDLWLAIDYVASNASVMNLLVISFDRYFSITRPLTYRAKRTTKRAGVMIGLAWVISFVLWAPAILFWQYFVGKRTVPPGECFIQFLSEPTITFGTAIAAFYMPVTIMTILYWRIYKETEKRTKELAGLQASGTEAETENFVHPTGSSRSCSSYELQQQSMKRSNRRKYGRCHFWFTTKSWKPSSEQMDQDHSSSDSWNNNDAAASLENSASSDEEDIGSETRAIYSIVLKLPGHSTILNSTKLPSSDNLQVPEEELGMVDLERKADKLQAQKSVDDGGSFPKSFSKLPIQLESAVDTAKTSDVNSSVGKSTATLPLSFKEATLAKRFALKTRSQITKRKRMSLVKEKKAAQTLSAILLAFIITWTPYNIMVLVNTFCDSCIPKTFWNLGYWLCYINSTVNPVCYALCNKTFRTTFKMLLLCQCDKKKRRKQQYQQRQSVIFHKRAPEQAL
The nature of assay [15]: Binding affinity to cloned Nicotinic acetylcholine receptors. More on the design: species or system Rattus norvegicus.
In assay [16] the target is Glutamate [NMDA] receptor. Briefly: Binding affinity for N-methyl-D-aspartate glutamate receptor. The format is protein-complex assay.
Assay [17] concerns the target Kappa-type opioid receptor (Homo sapiens, UniProt P41145). Briefly: Binding affinity to cloned Opioid receptor kappa 1.
In assay [18] the target is Delta-type opioid receptor (Homo sapiens, UniProt P41143). The assay can be described thus: Binding affinity to cloned Opioid receptor delta 1.
Sequence of Delta-type opioid receptor (P41143 whole entry): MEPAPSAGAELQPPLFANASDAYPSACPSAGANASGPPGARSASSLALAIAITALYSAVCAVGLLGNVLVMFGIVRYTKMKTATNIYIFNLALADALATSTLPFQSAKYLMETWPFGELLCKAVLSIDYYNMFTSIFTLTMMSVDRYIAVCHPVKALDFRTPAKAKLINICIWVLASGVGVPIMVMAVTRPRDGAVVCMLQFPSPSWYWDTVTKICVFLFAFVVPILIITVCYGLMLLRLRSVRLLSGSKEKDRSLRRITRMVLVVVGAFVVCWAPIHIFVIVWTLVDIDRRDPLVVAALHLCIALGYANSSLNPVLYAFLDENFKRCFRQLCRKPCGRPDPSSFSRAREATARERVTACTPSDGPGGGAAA
Assay [19] deals with Glutamate NMDA receptor. Briefly: Binding affinity to PCP site of rat N-methyl-D-aspartate glutamate receptor. The format is protein-complex assay.
Assay [20] has as its target T4, Muscarinic acetylcholine receptor M5 (Homo sapiens, UniProt P08912).
T4 sequence (P08912 whole entry): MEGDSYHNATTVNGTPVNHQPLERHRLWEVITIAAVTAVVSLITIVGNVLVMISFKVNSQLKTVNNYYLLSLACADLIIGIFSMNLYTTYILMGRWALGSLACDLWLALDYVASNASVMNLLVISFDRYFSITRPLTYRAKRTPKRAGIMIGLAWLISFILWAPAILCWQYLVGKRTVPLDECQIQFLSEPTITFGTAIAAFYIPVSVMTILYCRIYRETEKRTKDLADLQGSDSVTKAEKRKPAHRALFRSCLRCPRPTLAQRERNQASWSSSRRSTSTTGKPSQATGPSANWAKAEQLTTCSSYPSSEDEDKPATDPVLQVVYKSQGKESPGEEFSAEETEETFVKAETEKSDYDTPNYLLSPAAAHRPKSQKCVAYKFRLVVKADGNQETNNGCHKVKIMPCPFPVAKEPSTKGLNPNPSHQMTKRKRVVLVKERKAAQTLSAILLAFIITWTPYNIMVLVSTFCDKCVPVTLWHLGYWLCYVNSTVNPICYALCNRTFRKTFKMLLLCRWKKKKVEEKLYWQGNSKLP
The assay can be described thus: Binding affinity to cloned Muscarinic acetylcholine receptor M5.

Sequence of D(3) dopamine receptor (P19020 whole entry): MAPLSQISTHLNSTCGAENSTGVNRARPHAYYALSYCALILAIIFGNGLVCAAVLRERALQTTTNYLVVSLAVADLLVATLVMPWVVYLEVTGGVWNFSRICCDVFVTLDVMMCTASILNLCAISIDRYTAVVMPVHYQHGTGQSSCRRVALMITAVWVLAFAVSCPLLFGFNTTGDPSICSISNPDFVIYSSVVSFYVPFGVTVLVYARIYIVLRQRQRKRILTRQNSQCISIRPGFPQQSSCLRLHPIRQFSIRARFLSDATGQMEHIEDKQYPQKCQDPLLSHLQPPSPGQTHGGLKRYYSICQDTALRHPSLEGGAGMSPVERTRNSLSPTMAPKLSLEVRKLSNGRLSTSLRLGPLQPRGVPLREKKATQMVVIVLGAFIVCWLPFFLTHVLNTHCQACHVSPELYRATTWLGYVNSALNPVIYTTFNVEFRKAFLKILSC
Sequence of D(1A) dopamine receptor (P18901 whole entry): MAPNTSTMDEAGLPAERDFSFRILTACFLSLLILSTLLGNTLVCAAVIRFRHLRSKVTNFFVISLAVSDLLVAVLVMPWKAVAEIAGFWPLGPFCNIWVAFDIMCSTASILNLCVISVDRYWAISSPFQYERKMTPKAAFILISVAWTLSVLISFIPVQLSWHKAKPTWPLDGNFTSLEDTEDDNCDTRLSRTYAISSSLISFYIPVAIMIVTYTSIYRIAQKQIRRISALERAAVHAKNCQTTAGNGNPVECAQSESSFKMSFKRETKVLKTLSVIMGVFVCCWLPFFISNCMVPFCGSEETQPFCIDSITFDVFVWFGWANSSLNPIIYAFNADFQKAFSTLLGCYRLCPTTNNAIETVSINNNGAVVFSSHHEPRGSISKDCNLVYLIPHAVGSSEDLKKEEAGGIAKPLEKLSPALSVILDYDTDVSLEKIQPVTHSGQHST
Sequence of 5-hydroxytryptamine receptor 7 (P34969 whole entry): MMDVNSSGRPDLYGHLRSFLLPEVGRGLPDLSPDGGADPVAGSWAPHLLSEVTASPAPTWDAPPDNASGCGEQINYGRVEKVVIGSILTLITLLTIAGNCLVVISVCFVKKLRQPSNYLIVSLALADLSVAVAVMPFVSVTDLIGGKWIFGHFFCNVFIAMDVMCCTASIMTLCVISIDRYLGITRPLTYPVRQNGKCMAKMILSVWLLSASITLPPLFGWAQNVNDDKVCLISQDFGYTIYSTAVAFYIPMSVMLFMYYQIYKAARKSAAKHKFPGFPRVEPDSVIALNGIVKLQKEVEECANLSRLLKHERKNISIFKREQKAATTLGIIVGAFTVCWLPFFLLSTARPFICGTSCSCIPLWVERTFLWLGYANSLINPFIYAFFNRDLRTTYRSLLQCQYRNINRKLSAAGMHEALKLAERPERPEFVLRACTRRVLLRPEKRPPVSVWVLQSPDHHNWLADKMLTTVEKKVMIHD
Sequence of 5-hydroxytryptamine receptor 6 (P50406 whole entry): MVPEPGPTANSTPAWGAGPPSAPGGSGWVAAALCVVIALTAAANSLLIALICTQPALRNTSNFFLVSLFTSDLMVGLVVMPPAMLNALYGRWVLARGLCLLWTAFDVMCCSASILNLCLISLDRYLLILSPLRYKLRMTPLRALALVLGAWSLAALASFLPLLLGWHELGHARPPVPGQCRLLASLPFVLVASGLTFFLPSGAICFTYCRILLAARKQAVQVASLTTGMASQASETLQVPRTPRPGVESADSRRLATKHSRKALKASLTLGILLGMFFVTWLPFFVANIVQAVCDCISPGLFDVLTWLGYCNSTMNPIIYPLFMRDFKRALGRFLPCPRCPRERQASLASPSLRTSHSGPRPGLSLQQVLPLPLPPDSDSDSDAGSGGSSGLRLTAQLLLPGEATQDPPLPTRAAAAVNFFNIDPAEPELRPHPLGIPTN
Sequence of 5-hydroxytryptamine receptor 2A (P28223 whole entry): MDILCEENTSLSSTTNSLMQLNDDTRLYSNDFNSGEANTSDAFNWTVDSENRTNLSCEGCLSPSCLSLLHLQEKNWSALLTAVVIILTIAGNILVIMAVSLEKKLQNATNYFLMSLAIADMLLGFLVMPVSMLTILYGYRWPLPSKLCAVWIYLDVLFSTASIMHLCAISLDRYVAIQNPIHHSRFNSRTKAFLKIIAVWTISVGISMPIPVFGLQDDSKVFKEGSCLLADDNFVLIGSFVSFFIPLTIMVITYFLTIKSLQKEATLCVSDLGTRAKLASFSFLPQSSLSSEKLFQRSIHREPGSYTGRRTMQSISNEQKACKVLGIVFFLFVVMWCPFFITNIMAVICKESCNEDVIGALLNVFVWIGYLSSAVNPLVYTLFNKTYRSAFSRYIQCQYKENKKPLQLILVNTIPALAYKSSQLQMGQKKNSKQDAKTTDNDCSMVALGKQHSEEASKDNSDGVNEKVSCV
Sequence of 5-hydroxytryptamine receptor 5A (P47898 whole entry): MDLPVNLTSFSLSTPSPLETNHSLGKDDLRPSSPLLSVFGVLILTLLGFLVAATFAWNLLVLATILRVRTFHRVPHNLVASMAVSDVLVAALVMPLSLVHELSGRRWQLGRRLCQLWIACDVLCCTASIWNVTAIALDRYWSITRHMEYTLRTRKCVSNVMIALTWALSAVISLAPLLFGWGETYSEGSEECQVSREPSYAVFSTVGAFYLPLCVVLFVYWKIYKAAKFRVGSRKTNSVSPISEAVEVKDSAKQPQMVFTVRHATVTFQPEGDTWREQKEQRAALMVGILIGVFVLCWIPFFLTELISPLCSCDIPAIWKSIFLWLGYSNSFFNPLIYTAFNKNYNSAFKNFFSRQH

As a reminder, the pKi is the negative decadic logarithm of the Ki, by convention in mol/L. A lower pKi goes with a large Ki. With `CCc1ccc(N2CCN(Cc3c[nH]c4ncccc34)CC2)cc1`, the pKi in [1] was less than 5.00; in [2], less than 5.00; in assay [3], 6.20; in assay [4], 5.35; in assay [5] it was less than 5.00; in assay [6] it was 6.39. In addition, the pKi in [7] is less than 5.00; in assay [8], 8.30; in [9], less than 5.00; in assay [10], less than 5.00; in assay [11] it was 5.77; in assay [12], less than 5.00. For the same molecule, the pKi in assay [13], in assay [14], in assay [15], in assay [16], in [17] and in [18] was less than 5.00 in each case. The pKi in assay [19] and in assay [20] was less than 5.00 each time.
As to `c1ccc(-c2ccc(N3CCN(Cc4c[nH]c5ncccc45)CC3)cc2)cc1`, the pKi was less than 5.00 in [1]; less than 5.00 in [2]; 5.71 in [3]; less than 5.00 in assay [4]; less than 5.00 in [5]; less than 5.00 in assay [6]. The pKi in assay [7] was less than 5.00; in assay [8] it was 6.83; in [9] it was less than 5.00; in [10], less than 5.00; in [11], less than 5.00; in assay [12], less than 5.00. Besides, the negative logarithm of the Ki (pKi) in [13], in assay [14], in [15], in assay [16], in assay [17] and in assay [18] was less than 5.00 in each case. Moreover, the pKi in assay [19] and in assay [20] was less than 5.00 each time.

The values above are taken from ChEMBL document CHEMBL1134077, “Synthesis of potent and selective dopamine D(4) antagonists as candidate radioligands” (Bioorg Med Chem Lett, 2001).
